Results as given in publication PMC5113775, “Mirror‐Image Packing Provides a Molecular Basis for the Nanomolar Equipotency of Enantiomers of an Experimental Herbicide” (Angewandte Chemie (International Ed. in English), 2016).

Legend:
At ΔN IGPD2 construct A = target: T1, At ΔN IGPD2 construct A (Arabidopsis thaliana, UniProt O23346); experiment: crystal structure, […] Å; type: binding; settings: active site, two manganese ions; racemate
T1 construct: gene HISN5B; N-terminally truncated (delta-N) construct A, longer than construct B; borders only in supplement
T1 sequence (O23346 53-272, stated change not applied): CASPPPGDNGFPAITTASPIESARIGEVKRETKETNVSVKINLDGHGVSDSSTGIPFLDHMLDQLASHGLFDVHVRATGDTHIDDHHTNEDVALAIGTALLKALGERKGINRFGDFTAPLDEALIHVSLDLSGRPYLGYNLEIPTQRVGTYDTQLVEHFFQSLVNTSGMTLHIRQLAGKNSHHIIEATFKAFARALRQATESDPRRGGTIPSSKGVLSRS

At ΔN IGPD2 construct B = target: T2, At ΔN IGPD2 construct B (Arabidopsis thaliana, UniProt O23346); experiment: in vitro enzyme inhibition assay; crystal structure; type: biochemical
T2 construct: gene HISN5B; N-terminally truncated (delta-N) construct B, shorter than construct A; borders only in supplement; Mn2+ enzyme; EC 4.2.1.19
T2 sequence (O23346 69-272, stated change not applied): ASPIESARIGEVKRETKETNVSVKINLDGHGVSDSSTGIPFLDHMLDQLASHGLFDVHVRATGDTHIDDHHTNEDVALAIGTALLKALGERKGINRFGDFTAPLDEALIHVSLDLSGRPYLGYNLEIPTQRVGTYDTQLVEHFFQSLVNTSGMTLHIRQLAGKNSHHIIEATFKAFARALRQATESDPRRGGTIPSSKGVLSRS

| Structure (SMILES) | crystal structure, 1.85 Å (At ΔN IGPD2 construct A) | Ki (At ΔN IGPD2 construct B) [nM] |
| --- | --- | --- |
| O=P(O)(O)CC(O)Cn1cncn1 (racemic) [C348, 2‐hydroxy‐3‐(1,2,4‐triazol‐1‐yl) propylphosphonate] | grown in the presence of a racemate of C348 and the structure |  |
| O=P(O)(O)C[C@H](O)Cn1cncn1 [(R)‐C348, 2‐hydroxy‐3‐(1,2,4‐triazol‐1‐yl) propylphosphonate] |  | 15 ± 5 |
| O=P(O)(O)C[C@@H](O)Cn1cncn1 [(S)‐C348, 2‐hydroxy‐3‐(1,2,4‐triazol‐1‐yl) propylphosphonate] |  | 25 ± 3 |
